Laboratory results taken from patent US20250011366A1, “Prodrugs of Antibiotic Teixobactin” (priority 2021, published 2025).

Experiments:
[1] = Qualitative gelation assay in PBS; format: physicochemical; conditions: 10 mg/mL DMSO stock added to 1×PBS pH 7.4
Procedure: Gel formation of the teixobactin analogues was compared to that of the O-acyl isopeptide prodrugs in a qualitative gelation assay. In this experiment, a 10 mg/mL stock solution of the peptide trifluoroacetate salt in DMSO is added to 1×PBS buffer at pH 7.4 and gel formation is observed over time. Crystal violet is added to the PBS buffer to facilitate the visualization of the gels by providing contrast. […] In contrast, when the Lys10-teixobactin prodrugs are added, no immediate gel formation occurs.
Gelation assays of the O-acyl isopeptide prodrug analogues of teixobactin were performed using procedures previously reported. See K. Chen, et al., Chem. Commun. 2017, 53, 11357-11359, the disclosure of which is herein incorporated by reference.

[2] = tested on: human red blood cells; test: Hemolytic assay; format: cell-based
Procedure: The hemolytic activity of the O-acyl isopeptide prodrugs and the corresponding teixobactin analogues were evaluated with human red blood cells (FIGS. 9A to 9H). Triton X-100 and melittin were used as positive controls and vancomycin and water (vehicle) were used as negative controls in the hemolysis assays. […] In contrast, 0.002% polysorbate 80 had no effect on the hemolytic activity of Lys10-teixobactin and Leu10-teixobactin and little effect on the corresponding O-acyl isopeptide prodrug analogues. When the hemolysis assays were performed with teixobactin, no hemolysis was observed up to 100 μg/mL without polysorbate 80 and modest hemolysis (4%) at 100 μg/mL with 0.002% polysorbate 80.
Preparation of Phosphate-Buffered Saline (PBS) Buffers. A 10×PBS buffer was prepared by dissolving 8.9 g of Na2HPO4, 1.2 g KH2PO4, 40 g NaCl, and 1 g KCl in 500 mL of 18 MO deionized water. The solution was stirred until the buffer salts were completely dissolved. The pH of the 10×PBS buffer was adjusted to 7.4 using either 1 M HCl or 1 M NaOH and was subsequently sterile filtered. To create a 1×PBS buffer, the 10×PBS buffer was diluted 10-fold using 18 MO deionized water. Another 1×PBS buffer was made, supplemented with 0.002% polysorbate 80.
Preparation of human red blood cells. Whole human blood was stored in a 4° C. in K2 EDTA to prevent coagulation. On the day of cell treatment, the blood was centrifuged at 800×g for 5 min at 4° C. to isolate red blood cells (RBCs). The plasma layer was then removed and discarded. Approximately 3 mL of 150 mM NaCl solution was added to the RBCs and mixed gently by inversion. The RBCs were centrifuged at 800×g for 8 min at 4° C. and the supernatant was discarded. An additional wash with 150 mM NaCl was performed, centrifuged at 800×g for 8 min at 4° C. and the supernatant was discarded. 2 mL of whole RBCs were transferred to a 15-mL conical tube. Approximately 4 mL of 1×PBS was added to the RBCs and inverted gently to mix. The RBCs were centrifuged at 800×g for 8 min at 4° C. […]
Hemolytic assay readout. […]

[3] = tested on: four Gram-positive bacteria (methicillin-susceptible and methicillin-resistant S. aureus, B. subtilis, S. epidermidis); format: cell-based
Procedure: The antibiotic activity of the teixobactin O-acyl isopeptide prodrugs was evaluated using minimum inhibitory concentration (MIC) assays with four Gram-positive bacteria and compared the MIC values to those of the parent teixobactin analogues. Methicillin-susceptible and methicillin-resistant S. aureus were used as representative pathogens and B. subtilis and S. epidermidis as additional Gram-positive bacteria, and E. coli was used as a Gram-negative control. The activities of the teixobactin analogues and prodrugs were compared to those of teixobactin and vancomycin.
Bacillus subtilis (ATCC 6051), Staphylococcus epidermidis (ATCC 14990), Staphylococcus aureus (ATCC 29213), and Escherichia coli(ATCC 10798) were cultured from glycerol stocks in Mueller-Hinton broth overnight in a shaking incubator at 37° C. Staphylococcus aureus (ATCC 700698) was cultured from a glycerol stock in brain heart infusion broth overnight in a shaking incubator at 37° C. An aliquot of a 1 mg/mL antibiotic stock solution in DMSO was diluted with appropriate culture media to make a 64 μg/mL solution. […] The overnight cultures of each bacterium were diluted with Mueller-Hinton broth to an OD600 of 0.075 as measured for 200 μL in a 96-well plate. […] The OD600 were measured using a 96-well UV/vis plate reader (MultiSkan GO, Thermo Scientific). […]

gel formation immediately upon addition to PBS [1] | MIC [3] [µg/mL] | Structure (SMILES) | effect of 0.002% polysorbate 80 on hemolytic activity [2] | hemolysis ([2]; concentrations up to 100 μg/mL, with and without 0.002% polysorbate 80)
form gels immediately | – | CC[C@H](C)[C@H](NC(=O)[C@@H](Cc1ccccc1)NC)C(=O)N[C@@H](CO)C(=O)N[C@H](CCC(N)=O)C(=O)N[C@@H](C(=O)N[C@H](C(=O)N[C@@H](CO)C(=O)N[C@H]1C(=O)N[C@@H](C)C(=O)N[C@@H](CCCNC(=N)N)C(=O)N[C@@H]([C@@H](C)CC)C(=O)O[C@H]1C)[C@@H](C)CC)[C@@H](C)CC [Arg10-teixobactin] | – | –
form gels immediately | – | CC[C@H](C)[C@H](NC(=O)[C@@H](Cc1ccccc1)NC)C(=O)N[C@@H](CO)C(=O)N[C@H](CCC(N)=O)C(=O)N[C@@H](C(=O)N[C@H](C(=O)N[C@@H](CO)C(=O)N[C@H]1C(=O)N[C@@H](C)C(=O)N[C@@H](CC(C)C)C(=O)N[C@@H]([C@@H](C)CC)C(=O)O[C@H]1C)[C@@H](C)CC)[C@@H](C)CC [Leu10-teixobactin] | no effect | –
– | – | CN[C@H](CC(C)C)C(=O)N[C@H]1C(=O)N[C@@H](CC(N)=O)C(=O)N[C@H]2C(=O)N[C@H]3C(=O)N[C@H](C(=O)N[C@H](C(=O)O)c4cc(O)cc(O)c4-c4cc3ccc4O)[C@H](O)c3ccc(c(Cl)c3)Oc3cc2cc(c3O[C@@H]2O[C@H](CO)[C@@H](O)[C@H](O)[C@H]2O[C@H]2C[C@](C)(N)[C@H](O)[C@H](C)O2)Oc2ccc(cc2Cl)[C@H]1O [vancomycin] | – | No hemolysis

Structure (SMILES) | gel formation immediately upon addition to PBS [1] | MIC [3] [µg/mL] | effect of 0.002% polysorbate 80 on hemolytic activity [2] | hemolysis ([2]; concentrations up to 100 μg/mL, with and without 0.002% polysorbate 80)
CC[C@H](C)[C@H](NC(=O)[C@@H](Cc1ccccc1)NC)C(=O)N[C@@H](CO)C(=O)N[C@H](CCC(N)=O)C(=O)N[C@@H](C(=O)N[C@H](C(=O)N[C@@H](CO)C(=O)N[C@H]1C(=O)N[C@@H](C)C(=O)N[C@@H](CCCCN)C(=O)N[C@@H]([C@@H](C)CC)C(=O)O[C@H]1C)[C@@H](C)CC)[C@@H](C)CC [Lys10-teixobactin] | large gelatinous aggregates form immediately | 2 to 4 | no effect | –
